Measurements from patent publication US10457687B2, “Aminoacid derivatives, a process for their preparation and pharmaceutical compositions containing them” (LES LABORATOIRES SERVIER, priority 2015, dated 2019).

Experiments:
[1] = tested on: H929 multiple myeloma tumour line; assay: In vitro cytotoxicity, MTT assay, 48 hours; assay type: cell-based; conditions: H929 cells, 48 hours exposure, cell viability
Method: The cytotoxicity studies were carried out on the H929 multiple myeloma tumour line.
The cells are distributed onto microplates and exposed to the test compounds for 48 hours.

Mcl-1 protein = Mcl-1 protein (Homo sapiens, UniProt Q07820); assay: Inhibition of Mcl-1 by the fluorescence polarisation technique (Method 1 or Method 2); assay type: binding; conditions: for IC50: fluorescence polarisation, Fluorescein labelled ligand, Method 1 (not underlined) or Method 2 (underlined), read-out: IC50 (μM) Mcl-1 FP; for percentage fluorescence polarisation inhibition, Mcl-1 FP: partial inhibitors, @ 10 μM test compound
Method in brief: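 Fluorescence polarisation competition of 11-point compound dilutions (5% DMSO final) against fluorescein-labelled ligand for Mcl-1. Method 1: 1 nM ligand, 5 nM protein in 10 mM HEPES, 150 mM NaCl, 0.05% Tween 20, pH 7.4; Method 2: 10 nM ligand, 10 nM protein in 20 mM Na2HPO4, 1 mM EDTA, 50 mM NaCl, pH 7.4.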

Mcl-1 protein, sequence (Q07820 whole entry): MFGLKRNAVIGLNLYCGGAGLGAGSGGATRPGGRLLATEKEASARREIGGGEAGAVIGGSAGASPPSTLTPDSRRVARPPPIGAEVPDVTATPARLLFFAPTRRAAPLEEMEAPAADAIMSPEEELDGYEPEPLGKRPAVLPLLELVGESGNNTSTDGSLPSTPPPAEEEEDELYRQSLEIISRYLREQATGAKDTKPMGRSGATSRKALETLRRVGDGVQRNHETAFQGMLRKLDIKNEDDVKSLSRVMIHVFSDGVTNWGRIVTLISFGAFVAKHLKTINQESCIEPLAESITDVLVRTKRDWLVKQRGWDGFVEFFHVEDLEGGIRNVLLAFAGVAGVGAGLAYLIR

IC50 (Mcl-1 protein) [µM] | percentage fluorescence polarisation inhibition, Mcl-1 FP (Mcl-1 protein) [% @ 10 μM] | SMILES | IC50 ([1]; Homo sapiens, NCI-H929) [nM] | IC50 [1] [nM]
0.116 | – | Cc1c(-c2c(-c3ccc(F)o3)sc3ncnc(NC(Cc4ccccc4O)C(=O)O)c23)ccc(OCCN(C)C)c1Cl [Example 28, N-[(5Sa)-5-{3-chloro-4-[2-(dimethylamino)ethoxy]-2-methylphenyl}-6-(5-fluorofuran-2-yl)thieno[2,3-d]pyrimidin-4-yl]-2-hydroxy-D-phenylalanine] | > 1880 | –
0.063 | – | Cc1c(-c2c(-c3ccsc3)sc3ncnc(NC(Cc4ccccn4)C(=O)O)c23)ccc(OCCN2CCN(C)CC2)c1Cl [Example 29, N-[(5Sa)-5-{3-chloro-2-methyl-4-[2-(4-methylpiperazin-1-yl)ethoxy]phenyl}-6-(thiophen-3-yl)thieno[2,3-d]pyrimidin-4-yl]-3-pyridin-2-yl-D-alanine] | 2520 | –
– | 68.2 | Cc1c(-c2c(-c3ccsc3)sc3ncnc(N[C@H](Cc4ccccn4)C(=O)O)c23)ccc(OCCN2CCN(C)CC2)c1Cl [Example 30, N-[(5Ra)-5-{3-chloro-2-methyl-4-[2-(4-methylpiperazin-1-yl)ethoxy]phenyl}-6-(thiophen-3-yl)thieno[2,3-d]pyrimidin-4-yl]-3-pyridin-2-yl-D-alanine] | – | > 3750
– | 16.7 | Cc1c(-c2c(-c3ccsc3)sc3ncnc(N[C@H](CC4CCCCC4)C(=O)O)c23)ccc(OCCN2CCN(C)CC2)c1Cl [Example 31, N-[(5Ra)-5-{3-chloro-2-methyl-4-[2-(4-methylpiperazin-1-yl)ethoxy]phenyl}-6-(thiophen-3-yl)thieno[2,3-d]pyrimidin-4-yl]-3-cyclohexyl-D-alanine] | – | > 3750
0.007 | – | Cc1c(-c2c(-c3ccsc3)sc3ncnc(NC(CC4CCCCC4)C(=O)O)c23)ccc(OCCN2CCN(C)CC2)c1Cl [Example 32, N-[(5Sa)-5-{3-chloro-2-methyl-4-[2-(4-methylpiperazin-1-yl)ethoxy]phenyl}-6-(thiophen-3-yl)thieno[2,3-d]pyrimidin-4-yl]-3-cyclohexyl-D-alanine] | > 3750 | –
0.726 | – | Cc1c(-c2c(-c3ccsc3)sc3ncnc(NC(Cc4ccccc4F)C(=O)O)c23)ccc(OCCN2CCN(C)CC2)c1Cl [Example 34, N-[(5Sa)-5-{3-chloro-2-methyl-4-[2-(4-methylpiperazin-1-yl)ethoxy]phenyl}-6-(thiophen-3-yl)thieno[2,3-d]pyrimidin-4-yl]-2-fluoro-D-phenylalanine] | 4270 | –
– | 24.78 | Cc1c(-c2c(-c3ccsc3)sc3ncnc(NC(Cc4ccccn4)C(=O)O)c23)ccc(OCCN2CCOCC2)c1Cl [Example 35, N-[(5Ra)-5-{3-chloro-2-methyl-4-[2-(morpholin-4-yl)ethoxy]phenyl}-6-(thiophen-3-yl)thieno[2,3-d]pyrimidin-4-yl]-3-pyridin-2-yl-D-alanine] | – | > 30000
0.086 | – | Cc1c(-c2c(-c3ccsc3)sc3ncnc(NC(Cc4ccccn4)C(=O)O)c23)ccc(OCCN2CCOCC2)c1Cl [Example 36, N-[(5Sa)-5-{3-chloro-2-methyl-4-[2-(morpholin-4-yl)ethoxy]phenyl}-6-(thiophen-3-yl)thieno[2,3-d]pyrimidin-4-yl]-3-pyridin-2-yl-D-alanine] | > 7500 | –
0.025 | – | CC#Cc1sc2ncnc(NC(Cc3ccccc3OC)C(=O)O)c2c1-c1ccc(OCCN2CCN(C)CC2)c(Cl)c1C [Example 39, N-[(5Sa)-5-{3-chloro-2-methyl-4-[2-(4-methylpiperazin-1-yl)ethoxy]phenyl}-6-(prop-1-yn-1-yl)thieno[2,3-d]pyrimidin-4-yl]-2-methoxy-D-phenylalanine] | 401 | –
0.006 | – | CC#Cc1sc2ncnc(NC(Cc3ccccc3OCc3ccnc(CCOC)n3)C(=O)O)c2c1-c1ccc(OCCN2CCN(C)CC2)c(Cl)c1C [Example 41, N-[(5Sa)-5-{3-chloro-2-methyl-4-[2-(4-methylpiperazin-1-yl)ethoxy]phenyl}-6-(prop-1-yn-1-yl)thieno[2,3-d]pyrimidin-4-yl]-2-{[2-(2-methoxyethyl)pyrimidin-4-yl]methoxy}-D-phenylalanine] | 7.38 | –
0.01 | – | CC#Cc1sc2ncnc(NC(Cc3ccccc3OCc3ccnn3CC(F)(F)F)C(=O)O)c2c1-c1ccc(OCCN2CCN(C)CC2)c(Cl)c1C [Example 42, N-[(5Sa)-5-{3-chloro-2-methyl-4-[2-(4-methylpiperazin-1-yl)ethoxy]phenyl}-6-(prop-1-yn-1-yl)thieno[2,3-d]pyrimidin-4-yl]-2-{[1-(2,2,2-trifluoroethyl)-1H-pyrazol-5-yl]methoxy}-D-phenylalanine] | 61 | –
0.024 | – | CC#Cc1sc2ncnc(NC(Cc3ccccc3OCc3ccnn3CC(F)(F)F)C(=O)O)c2c1-c1ccc(OCCN(C)C)c(Cl)c1C [Example 46, N-[(5Sa)-5-{3-chloro-4-[2-(dimethylamino)ethoxy]-2-methylphenyl}-6-(prop-1-yn-1-yl)thieno[2,3-d]pyrimidin-4-yl]-2-{[1-(2,2,2-trifluoroethyl)-1H-pyrazol-5-yl]methoxy}-D-phenylalanine] | 166 | –
0.008 | – | CC#Cc1sc2ncnc(NC(Cc3ccccc3OCc3ccnc(N4CCOCC4)n3)C(=O)O)c2c1-c1ccc(OCCN(C)C)c(Cl)c1C [Example 47, N-[(5Sa)-5-{3-chloro-4-[2-(dimethylamino)ethoxy]-2-methylphenyl}-6-(prop-1-yn-1-yl)thieno[2,3-d]pyrimidin-4-yl]-2-{[2-(morpholin-4-yl)pyrimidin-4-yl]methoxy}-D-phenylalanine] | 83.9 | –
0.007 | – | CC#Cc1sc2ncnc(NC(Cc3ccccc3OCc3ccnc(OCC(F)(F)F)n3)C(=O)O)c2c1-c1ccc(OCCN(C)C)c(Cl)c1C [Example 48, N-[(5Sa)-5-{3-chloro-4-[2-(dimethylamino)ethoxy]-2-methylphenyl}-6-(prop-1-yn-1-yl)thieno[2,3-d]pyrimidin-4-yl]-2-{[2-(2,2,2-trifluoroethoxy)pyrimidin-4-yl]methoxy}-D-phenylalanine] | 16.1 | –
0.007 | – | Cc1c(-c2c(-c3ccc(F)cc3)sc3ncnc(NC(Cc4ccccc4OCc4ccnc(-c5ccccc5F)n4)C(=O)O)c23)ccc(OCCN(C)C)c1Cl [Example 50, N-[(5Sa)-5-{3-chloro-4-[2-(dimethylamino)ethoxy]-2-methylphenyl}-6-(4-fluorophenyl)thieno[2,3-d]pyrimidin-4-yl]-2-{[2-(2-fluorophenyl)pyrimidin-4-yl]methoxy}-D-phenylalanine] | > 150 | –

SMILES | IC50 (Mcl-1 protein) [µM] | percentage fluorescence polarisation inhibition, Mcl-1 FP (Mcl-1 protein) [% @ 10 μM] | IC50 ([1]; Homo sapiens, NCI-H929) [nM] | IC50 [1] [nM]
Cc1c(-c2c(-c3ccsc3)sc3ncnc(NC(Cc4ccccc4CN)C(=O)O)c23)ccc(OCCN2CCOCC2)c1Cl [Example 37, 2-(aminomethyl)-N-[(5Ra)-5-{3-chloro-2-methyl-4-[2-(morpholin-4-yl)ethoxy]phenyl}-6-(thiophen-3-yl)thieno[2,3-d]pyrimidin-4-yl]-D-phenylalanine] | – | 18.7 | – | > 3750
Cc1c(-c2c(-c3ccsc3)sc3ncnc(NC(Cc4ccccc4CN)C(=O)O)c23)ccc(OCCN2CCOCC2)c1Cl [Example 38, 2-(aminomethyl)-N-[(5Sa)-5-{3-chloro-2-methyl-4-[2-(morpholin-4-yl)ethoxy]phenyl}-6-(thiophen-3-yl)thieno[2,3-d]pyrimidin-4-yl]-D-phenylalanine] | 1.87 | – | > 3750 | –
